# Reference: paper PMC6627489, “Metal-Biosurfactant Complexes Characterization: Binding, Self-Assembly and Interaction with Bovine Serum Albumin” (International Journal of Molecular Sciences, 2019)
# Non-standard residues stand in square brackets, D forms with d. No end group written: not given here.
# Experiments:
# [1] = Surface tension measurements (du Noüy ring), CMC determination; type: physicochemical; conditions: du Noüy ring tensiometry, 10 mM Hepes buffer pH 7.4, 25 °C, metal ions 0.1 mM where present, triplicate
# Experimental: For the pure surfactin in the Hepes buffer without divalent counterions, the critical micelle concentration (CMC) value was 0.045 mM. Regarding the effect of divalent cations, Ca^2+ decreased the CMC value of surfactin-C15 more than the other cations. Compared with the surfactin-C15 solution without metal ions, the CMC of Ca^2+-surfactin decreased from 0.045 mM to 0.017 mM. The addition of 0.1 mM of Cu^2+, Mg^2+ and Zn^2+ to surfactin-C15 reduced the CMCs to 0.033 mM, 0.036 mM and 0.038 mM, respectively. All the tested metal ions led to reductions of the surface tension of surfactin-C15 at the CMC (γcmc), being the highest reductions obtained with Cu^2+ and Ca^2+ (from 28.4 mN·m^−1 up to 24.5 and 25.1 mN·m^−1, respectively). The peptide ring of surfactin adopts a “horsesaddle” structure in solution, with the two charged residues forming a “claw”, which is a potential binding site for divalent cations.
# Figure 3 Surface tension profiles of surfactin and metal-surfactin complexes in Hepes buffer (pH 7.4) at 25 °C. The values represent the mean of triplicates ± SD.
# The surface tension (γ) measurements were performed at room temperature (25 °C) according to the du Noüy’s ring method using a KRÜSS K20 Tensiometer (KRÜSS GmbH, Hamburg, Germany). […] The surface tension data were analyzed using the Origin software provided with the equipment to obtain the CMC values.
# [2] = Micelle size by dynamic light scattering (DLS); type: physicochemical; conditions: 10 mM Hepes pH 7.4, 25 °C
# Source text: For example, it is known that the addition of metal ions decreases the CMC of surfactin. This is probably related with two important competing forces during the micellization process. Electrostatic interactions, which are responsible for the repulsion of hydrophilic groups of the lipopeptide inhibit the formation of micelles. On the other hand, hydrophobic interactions are responsible for initiation of micellization through exclusion of fatty acid chains from the aqueous environment. The presence of divalent cations additionally supports the self-assembly process. […] In the case of the Cu^2+-surfactin system, Vmic^PM6 is twice lower than in the case of the free lipopeptide. Such big differences influence the aggregation number. Generally, Nagg decreases after binding of cations. The experimental micelle volumes and hydrodynamic radii with their theoretically calculated counterparts and aggregation numbers are shown in Table 1. The experimental (RH^DLS) and theoretically calculated (RH^PM6) hydrodynamic radii of surfactin-C15 were 2.46 nm and 2.40 nm, respectively. Addition of Cu^2+, Zn^2+, Mg^2+ and Ca^2+ reduces the size of the microstructures. In this study, we observed the largest modifications of surfactin-C15 conformation due to the binding of Cu^2+; in that case RH^DLS and RH^PM6 were 1.82 nm and 1.80 nm, respectively. […]
# [3] = molecular target: bovine serum albumin (BSA) (Bos taurus, UniProt P02769); assay: Fluorescence quenching of BSA (Stern-Volmer, binding constant, Van't Hoff); conditions: for kq, biomolecular quenching rate constant / KSV, Stern-Volmer quenching constant: BSA 15 µM; for kq, biomolecular quenching rate constant: from KSV with τ0 about 5 ns; for KSV, Stern-Volmer quenching constant: excitation 280 nm; for ΔG of binding to BSA: ΔG=ΔH−TΔS
# Chain of bovine serum albumin (BSA) (P02769 25-607): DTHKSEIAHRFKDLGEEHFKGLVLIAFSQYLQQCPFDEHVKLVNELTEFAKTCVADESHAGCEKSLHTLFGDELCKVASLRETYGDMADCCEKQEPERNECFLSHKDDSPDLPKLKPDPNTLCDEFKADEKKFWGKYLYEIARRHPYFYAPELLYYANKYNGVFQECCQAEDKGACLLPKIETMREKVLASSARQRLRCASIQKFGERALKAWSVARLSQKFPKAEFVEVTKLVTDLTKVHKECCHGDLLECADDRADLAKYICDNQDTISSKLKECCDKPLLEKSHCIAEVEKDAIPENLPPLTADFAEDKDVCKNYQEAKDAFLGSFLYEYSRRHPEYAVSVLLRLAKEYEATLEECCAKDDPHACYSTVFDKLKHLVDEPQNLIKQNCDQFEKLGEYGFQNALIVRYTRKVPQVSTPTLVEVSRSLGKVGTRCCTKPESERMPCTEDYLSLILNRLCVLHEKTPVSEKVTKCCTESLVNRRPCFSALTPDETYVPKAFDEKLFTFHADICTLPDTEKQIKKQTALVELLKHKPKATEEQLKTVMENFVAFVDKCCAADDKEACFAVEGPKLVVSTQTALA
# Source text: Fluorescence spectroscopy is a valuable tool for studying ligand-protein interactions. BSA contains two tryptophan residues, Trp134 and Trp213, which are located in sub-domain IB and sub-domain IIA, respectively. The maximum emission wavelength of BSA was found at 348 nm, and the intensity decreased regularly upon increasing the concentration of surfactin and metal-surfactin complexes. This interaction takes place adjacent to the Trp in BSA and changes the polarity around the fluorophore. This phenomenon is ascribed to the formation of surfactin/BSA and metal-surfactin/BSA complexes.
# Figure 4 Fluorescence emission spectra of bovine serum albumin (BSA) with different concentrations of Cu^2+-surfactin (a), Zn^2+-surfactin (b), Mg^2+-surfactin (c), Ca^2+-surfactin (d) and surfactin (e). Conditions: BSA: 15 µM; metal-lipopeptide (a–g): 0, 10, 20, 50, 70, 100 and 120 µM; pH = 7.4; T =25 °C.
# Fluorescence quenching can occur through dynamic and static mechanisms. Both dynamic and static quenching require molecular contact between the fluorophore and the quencher. The Stern–Volmer quenching (KSV) values decrease with an increase in temperature for static quenching, but the reverse effect is observed for dynamic quenching. Quenching parameters were calculated from the Stern–Volmer equation [34]:(1) F0/F=1+KSV[Q]=1+kqτ0[Q] where F0 and F are the fluorescence intensities in the absence and presence of surfactin or metal-surfactin complexes, respectively; KSV is the Stern–Volmer quenching constant; [Q] is the concentration of surfactin or metal-surfactin complexes; kq is the biomolecular quenching rate constant; and τ0 is the lifetime of the fluorophore. The fluorescence lifetime of BSA is about 5 ns. The KSV values obtained from the plot of [Q] versus F0/F (shown in Figure 5) were in the range from 6.696 × 10^3 to 7.787 × 10^3 M^−1 corresponding to the surfactin and metal-surfactin complexes.
# For the static quenching interaction, the binding constant (Kb) and the number of binding sites (n) can be determined by the following equation:(2) log[(F0−F)/F]=logKb+nlog[Q] where F0 and F are the fluorescence intensities in the absence and presence of surfactin or metal-surfactin complexes, respectively, and [Q] is the concentration of surfactin or metal-surfactin complexes. Binding constants obtained from the plot of log [Q] versus log [(F0−F)/F] (Figure 6) corresponding to surfactin and metal-surfactin complexes ranged from 0.746 × 10^4 to 1.315 × 10^4 M^−1. […] Regarding the binding constants (Kb), surfactin has values higher than all the tested metal-surfactin complexes. […] The above results are similar to those reported for metal-amphisin/BSA [27].
# Thermodynamic parameters for a binding interaction can be used as major evidence for the nature of intermolecular forces. There are four types of interaction forces, which could play a role in ligand binding to proteins: Van der Waals forces, hydrophobic forces, electrostatic interactions and hydrogen bonds. Thermodynamic parameters relying on temperatures were analyzed to characterize the acting force between surfactin and metal-surfactin complexes with BSA. To obtain such information, the thermodynamic parameters were calculated from the Van’t Hoff relation:(3) lnK=−ΔH^0/RT+ΔS^0/R (4) ΔG^0=ΔH^0−TΔS^0=−RTlnK where K is the binding constant, R is the gas constant and T is the experimental temperature. ΔH denotes the enthalpy change and ΔS denotes the entropy change of the binding process. The ΔH and ΔS values were calculated from the slope and intercept of the Van’t Hoff plot (Figure S2), respectively. The negative sign for ΔG means that the interaction process is spontaneous. […] This observation is supported by the docking results.
# The fluorescence quenching spectra were obtained with a Varian Cary eclipse fluorescence spectrophotometer. […]
# [4] = 25 °C, pH 7.4, from plot of log[(F0−F)/F] versus log[Q]
# [5] = Van't Hoff plot over 25, 30, 37 °C
substance,measurement,setting,value
"EL[dL]VD[dL]L (also: lariat or depsi (positions not given here)) [Surfactin, surfactin-C15, cyclic lipopeptide biosurfactant from Bacillus subtilis #309; heptapeptide closed to a lactone ring by a C15 β-hydroxyl fatty acid]",critical micelle concentration (CMC),[1]; surfactin-C15 0.003-0.12 mM,0.045 mM
same,surface tension at the CMC (γcmc),[1],28.4 mN·m^−1
same,"RH^(DLS), hydrodynamic radius of micelles","[2]; DLS, 173° backscatter, mean of 9 replicates ± SD",2.46 ± 0.03 nm
same,"Vmic^(DLS), micelle volume","[2]; Vmic(DLS)=4/3·π·(RH(DLS))^3, from DLS radius",62.36 nm^3
same,"Kb, binding constant with BSA",[3]; [4],13150 M⁻¹
same,"n, number of binding sites on BSA",[3]; [4],1.07
same,"kq, biomolecular quenching rate constant","[3]; T 25 °C, pH 7.4",1.339e+12 M⁻¹ s⁻¹
same,"KSV, Stern-Volmer quenching constant","[3]; T 25 °C, pH 7.4, quencher 0-120 µM",6696 M⁻¹
same,ΔG of binding to BSA,[3]; T 25 °C,-21.84 kJ/mol
same,"KSV, Stern-Volmer quenching constant","[3]; T 30 °C, pH 7.4",4926 M⁻¹
same,"kq, biomolecular quenching rate constant","[3]; T 30 °C, pH 7.4",9.852e+11 M⁻¹ s⁻¹
same,ΔG of binding to BSA,[3]; T 30 °C,-21.39 kJ/mol
same,"KSV, Stern-Volmer quenching constant","[3]; T 37 °C, pH 7.4",3147 M⁻¹
same,"kq, biomolecular quenching rate constant","[3]; T 37 °C, pH 7.4",6.294e+11 M⁻¹ s⁻¹
same,ΔG of binding to BSA,[3]; T 37 °C,-20.77 kJ/mol
same,ΔH of binding to BSA,[3]; [5],-48.42 kJ/mol
same,ΔS of binding to BSA,[3]; [5],−89.20 J·mol^−1·K^−1
